Laboratory results reported in patent US11793849B2, “Method of Chinese herbal medicine extract used for treating multiple diseases caused by drug resistant bacteria infection” (priority 2016, dated 2023).
Like-named read-outs stand apart in the source and are kept apart here.

System: MDRAB
Experiment: Checkerboard assay (combined-use MIC, FIC)
Assay type: cell-based, Acinetobacter baumannii
Details: for FIC, all strains / MIC50 of the antibiotic after combined use / MIC90 of the antibiotic after combined use / reduction of the antibiotic's MIC50 vs single use / reduction of the antibiotic's MIC90 vs single use / share of strains with FIC ≤ 0.5: 20 MDRABs; for MIC: Acinetobacter baumannii, read-out: single-use MIC
Description: Test methods of the sensibilization effects of the test product to similar antibiotics: it is operated by referring to a checkerboard assay recommended by NCCLS.
The checkerboard assay is performed in a 96-pore sterile culture plate.
Calculation of a Fractional Inhibitory Concentration (FIC): FIC=S20b combined-use MIC/S20b single-use MIC+antibiotic combined-use MIC/antibiotic single-use MIC. By calculating the FIC, the combined antibacterial interaction between the EA and the antibiotic is evaluated, with synergistic effect for FIC≤0.5, additive effect for 0.5<FIC≤1, indifferent effect for 1<FIC≤2 and antagonistic effect for FIC>2. According to a sterile growth pore, the optimum concentration ratio between the EA and the antibiotic is founded out. At last, the effect of the EA to strengthen the efficacy of the antibiotic is evaluated.

[1] = antibiotic with 60% ethanol extract
[2] = antibiotic with 95% ethanol extract
[3] = antibiotic with EA (10% ethanol extract)
[4] = antibiotic with EA (water extract)

## C[C@@H](O)[C@H]1C(=O)N2C(C(=O)O)=C(SCCN=CN)C[C@H]12 [IMP, imipenem]
[1]
  FIC, all strains: ≤ 1
  MIC50 of the antibiotic after combined use: 8 µg/mL
  MIC90 of the antibiotic after combined use: 16 µg/mL
  reduction of the antibiotic's MIC50 vs single use: 75%
  reduction of the antibiotic's MIC90 vs single use: 50%
  share of strains with FIC ≤ 0.5: 70%
[2]
  FIC, all strains: ≤ 1
  MIC50 of the antibiotic after combined use: 8 µg/mL
  MIC90 of the antibiotic after combined use: 16 µg/mL
  reduction of the antibiotic's MIC50 vs single use: 75%
  reduction of the antibiotic's MIC90 vs single use: 50%
  share of strains with FIC ≤ 0.5: 55%
[3]
  FIC, all strains: ≤ 1
  MIC50 of the antibiotic after combined use: 8 µg/mL
  MIC90 of the antibiotic after combined use: 16 µg/mL
  reduction of the antibiotic's MIC50 vs single use: 75%
  reduction of the antibiotic's MIC90 vs single use: 50%
  share of strains with FIC ≤ 0.5: 45%
[4]
  FIC, all strains: ≤ 1
  MIC50 of the antibiotic after combined use: 8 µg/mL
  MIC90 of the antibiotic after combined use: 16 µg/mL
  reduction of the antibiotic's MIC50 vs single use: 75%
  reduction of the antibiotic's MIC90 vs single use: 50%
  share of strains with FIC ≤ 0.5: 35%
Strain A1, EA=60% ethanol extract
  MIC: 1 µg/mL
Strain A1, EA=95% ethanol extract
  MIC: 1 µg/mL
Strain A2, EA=60% ethanol extract
  MIC: 32 µg/mL
Strain A2, EA=95% ethanol extract
  MIC: 32 µg/mL
Strain A3, EA=60% ethanol extract
  MIC: 32 µg/mL
Strain A3, EA=95% ethanol extract
  MIC: 32 µg/mL
Strain A4, EA=60% ethanol extract
  MIC: 8 µg/mL
Strain A4, EA=95% ethanol extract
  MIC: 8 µg/mL
Strain A5 (printed AS in tables A43, A45), EA=95% ethanol extract
  MIC: 32 µg/mL
Strain A5, EA=60% ethanol extract
  MIC: 32 µg/mL
Strain A6, EA=60% ethanol extract
  MIC: 32 µg/mL
Strain A6, EA=95% ethanol extract
  MIC: 32 µg/mL
Strain A7, EA=60% ethanol extract
  MIC: 32 µg/mL
Strain A7, EA=95% ethanol extract
  MIC: 32 µg/mL
Strain A8, EA=60% ethanol extract
  MIC: 32 µg/mL
Strain A8, EA=95% ethanol extract
  MIC: 32 µg/mL
Strain A9, EA=60% ethanol extract
  MIC: 32 µg/mL
Strain A9, EA=95% ethanol extract
  MIC: 32 µg/mL
Strain A10, EA=60% ethanol extract
  MIC: 16 µg/mL
Strain A10, EA=95% ethanol extract
  MIC: 16 µg/mL
Strain A11, EA=60% ethanol extract
  MIC: 32 µg/mL
Strain A11, EA=95% ethanol extract
  MIC: 32 µg/mL
Strain A12, EA=60% ethanol extract
  MIC: 32 µg/mL
Strain A12, EA=95% ethanol extract
  MIC: 32 µg/mL
Strain A13, EA=60% ethanol extract
  MIC: 32 µg/mL
Strain A13, EA=95% ethanol extract
  MIC: 32 µg/mL
Strain A14, EA=60% ethanol extract
  MIC: 32 µg/mL
Strain A14, EA=95% ethanol extract
  MIC: 32 µg/mL
Strain A15, EA=60% ethanol extract
  MIC: 32 µg/mL
Strain A15, EA=95% ethanol extract
  MIC: 32 µg/mL
Strain A16, EA=60% ethanol extract
  MIC: 32 µg/mL
Strain A16, EA=95% ethanol extract
  MIC: 32 µg/mL
Strain A17, EA=60% ethanol extract
  MIC: 16 µg/mL
Strain A17, EA=95% ethanol extract
  MIC: 16 µg/mL
Strain A18, EA=60% ethanol extract
  MIC: 32 µg/mL
Strain A18, EA=95% ethanol extract
  MIC: 32 µg/mL
Strain A19, EA=60% ethanol extract
  MIC: 32 µg/mL
Strain A19, EA=95% ethanol extract
  MIC: 32 µg/mL
Strain A20, EA=60% ethanol extract
  MIC: 32 µg/mL
Strain A20, EA=95% ethanol extract
  MIC: 32 µg/mL
Strain A1, EA (10% ethanol extract) with IMP
  combined-use MIC: 0.5 µg/mL
Strain A1, EA (60% ethanol extract) + IMP combined
  combined-use MIC: 0.5 µg/mL
Strain A1, EA (95% ethanol extract) + IMP combined
  combined-use MIC: 0.5 µg/mL
Strain A1, EA (water extract) with IMP
  combined-use MIC: 0.5 µg/mL
Strain A2, EA (10% ethanol extract) with IMP
  combined-use MIC: 8 µg/mL
Strain A2, EA (60% ethanol extract) + IMP combined
  combined-use MIC: 8 µg/mL
Strain A2, EA (95% ethanol extract) + IMP combined
  combined-use MIC: 8 µg/mL
Strain A2, EA (water extract) with IMP
  combined-use MIC: 16 µg/mL
Strain A3, EA (10% ethanol extract) with IMP
  combined-use MIC: 8 µg/mL
Strain A3, EA (60% ethanol extract) + IMP combined
  combined-use MIC: 8 µg/mL
Strain A3, EA (95% ethanol extract) + IMP combined
  combined-use MIC: 8 µg/mL
Strain A3, EA (water extract) with IMP
  combined-use MIC: 16 µg/mL
Strain A4, EA (10% ethanol extract) with IMP
  combined-use MIC: 8 µg/mL
Strain A4, EA (60% ethanol extract) + IMP combined
  combined-use MIC: 0.5 µg/mL
Strain A4, EA (95% ethanol extract) + IMP combined
  combined-use MIC: 0.5 µg/mL
Strain A4, EA (water extract) with IMP
  combined-use MIC: 1 µg/mL
Strain A5, EA (10% ethanol extract) with IMP
  combined-use MIC: 8 µg/mL
Strain A5, EA (60% ethanol extract) + IMP combined
  combined-use MIC: 8 µg/mL
Strain A5, EA (water extract) with IMP
  combined-use MIC: 16 µg/mL
Strain A6, EA (10% ethanol extract) with IMP
  combined-use MIC: 4 µg/mL
Strain A6, EA (60% ethanol extract) + IMP combined
  combined-use MIC: 16 µg/mL
Strain A6, EA (95% ethanol extract) + IMP combined
  combined-use MIC: 16 µg/mL
Strain A6, EA (water extract) with IMP
  combined-use MIC: 16 µg/mL
Strain A7, EA (10% ethanol extract) with IMP
  combined-use MIC: 8 µg/mL
Strain A7, EA (60% ethanol extract) + IMP combined
  combined-use MIC: 16 µg/mL
Strain A7, EA (95% ethanol extract) + IMP combined
  combined-use MIC: 16 µg/mL
Strain A7, EA (water extract) with IMP
  combined-use MIC: 16 µg/mL
Strain A8, EA (10% ethanol extract) with IMP
  combined-use MIC: 16 µg/mL
Strain A8, EA (60% ethanol extract) + IMP combined
  combined-use MIC: 16 µg/mL
Strain A8, EA (95% ethanol extract) + IMP combined
  combined-use MIC: 16 µg/mL
Strain A8, EA (water extract) with IMP
  combined-use MIC: 16 µg/mL
Strain A9, EA (10% ethanol extract) with IMP
  combined-use MIC: 8 µg/mL
Strain A9, EA (60% ethanol extract) + IMP combined
  combined-use MIC: 4 µg/mL
Strain A9, EA (95% ethanol extract) + IMP combined
  combined-use MIC: 4 µg/mL
Strain A9, EA (water extract) with IMP
  combined-use MIC: 16 µg/mL
Strain A10, EA (10% ethanol extract) with IMP
  combined-use MIC: 8 µg/mL
Strain A10, EA (60% ethanol extract) + IMP combined
  combined-use MIC: 8 µg/mL
Strain A10, EA (95% ethanol extract) + IMP combined
  combined-use MIC: 8 µg/mL
Strain A10, EA (water extract) with IMP
  combined-use MIC: 8 µg/mL
Strain A11, EA (10% ethanol extract) with IMP
  combined-use MIC: 8 µg/mL
Strain A11, EA (60% ethanol extract) + IMP combined
  combined-use MIC: 4 µg/mL
Strain A11, EA (95% ethanol extract) + IMP combined
  combined-use MIC: 4 µg/mL
Strain A11, EA (water extract) with IMP
  combined-use MIC: 8 µg/mL
Strain A12, EA (10% ethanol extract) with IMP
  combined-use MIC: 8 µg/mL
Strain A12, EA (60% ethanol extract) + IMP combined
  combined-use MIC: 8 µg/mL
Strain A12, EA (95% ethanol extract) + IMP combined
  combined-use MIC: 8 µg/mL
Strain A12, EA (water extract) with IMP
  combined-use MIC: 16 µg/mL
Strain A13, EA (10% ethanol extract) with IMP
  combined-use MIC: 8 µg/mL
Strain A13, EA (60% ethanol extract) + IMP combined
  combined-use MIC: 8 µg/mL
Strain A13, EA (95% ethanol extract) + IMP combined
  combined-use MIC: 8 µg/mL
Strain A13, EA (water extract) with IMP
  combined-use MIC: 16 µg/mL
Strain A14, EA (10% ethanol extract) with IMP
  combined-use MIC: 16 µg/mL
Strain A14, EA (60% ethanol extract) + IMP combined
  combined-use MIC: 4 µg/mL
Strain A14, EA (95% ethanol extract) + IMP combined
  combined-use MIC: 8 µg/mL
Strain A14, EA (water extract) with IMP
  combined-use MIC: 4 µg/mL
Strain A15, EA (10% ethanol extract) with IMP
  combined-use MIC: 8 µg/mL
Strain A15, EA (60% ethanol extract) + IMP combined
  combined-use MIC: 4 µg/mL
Strain A15, EA (95% ethanol extract) + IMP combined
  combined-use MIC: 8 µg/mL
Strain A15, EA (water extract) with IMP
  combined-use MIC: 4 µg/mL
Strain A16, EA (10% ethanol extract) with IMP
  combined-use MIC: 8 µg/mL
Strain A16, EA (60% ethanol extract) + IMP combined
  combined-use MIC: 8 µg/mL
Strain A16, EA (95% ethanol extract) + IMP combined
  combined-use MIC: 8 µg/mL
Strain A16, EA (water extract) with IMP
  combined-use MIC: 8 µg/mL
Strain A17, EA (10% ethanol extract) with IMP
  combined-use MIC: 4 µg/mL
Strain A17, EA (60% ethanol extract) + IMP combined
  combined-use MIC: 2 µg/mL
Strain A17, EA (95% ethanol extract) + IMP combined
  combined-use MIC: 2 µg/mL
Strain A17, EA (water extract) with IMP
  combined-use MIC: 2 µg/mL
Strain A18, EA (10% ethanol extract) with IMP
  combined-use MIC: 16 µg/mL
Strain A18, EA (60% ethanol extract) + IMP combined
  combined-use MIC: 8 µg/mL
Strain A18, EA (95% ethanol extract) + IMP combined
  combined-use MIC: 8 µg/mL
Strain A18, EA (water extract) with IMP
  combined-use MIC: 8 µg/mL
Strain A19, EA (10% ethanol extract) with IMP
  combined-use MIC: 8 µg/mL
Strain A19, EA (60% ethanol extract) + IMP combined
  combined-use MIC: 8 µg/mL
Strain A19, EA (95% ethanol extract) + IMP combined
  combined-use MIC: 8 µg/mL
Strain A19, EA (water extract) with IMP
  combined-use MIC: 8 µg/mL
Strain A20, EA (10% ethanol extract) with IMP
  combined-use MIC: 8 µg/mL
Strain A20, EA (60% ethanol extract) + IMP combined
  combined-use MIC: 8 µg/mL
Strain A20, EA (95% ethanol extract) + IMP combined
  combined-use MIC: 8 µg/mL
Strain A20, EA (water extract) with IMP
  combined-use MIC: 8 µg/mL
Strain AS, EA (95% ethanol extract) + IMP combined
  combined-use MIC: 8 µg/mL
